Calls of active or inactive are those of the source. The rule behind the calls is not given here.

By Cmax is commonly meant the highest concentration seen after dosing. Usually AUC(0-inf) stands for total exposure, with the tail of the curve extrapolated. For orientation: AUC(0-t) means the area under the concentration-time curve up to a stated or last time point. The IC50 is the concentration that inhibits the measured activity by half. What is called bioavailability is dose-corrected exposure relative to a reference, in per cent. By Tmax is commonly meant the time from dosing to the highest level.

For data set [1], the system named is B16-F10. Briefly: Antitumor activity against mouse B16-F10 cells implanted in C57BL/6 mouse assessed as tumor growth inhibition at 10 mg/kg, ip QD co-administered with SWS1 for 13 days relative to control. The settings on record: B16-F10, 312 h, time 13 day, read-out: TGI. The format is functional.
The nature of data set [2]: Selectivity ratio of IC50 for antiproliferative activity against mouse B16-F10 cells to IC50 for synergistic antiproliferative activity against mouse B16-F10 cells in presence of doxorubicin. The format is functional.
A short description of data set [3]: Cmax in male Sprague-Dawley rat at 10 mg/kg, po measured after 48 hrs by LC-MS/MS analysis. The format is ADME, organism-based. The settings on record: in vivo.
A short description of data set [4]: Toxicity in C57BL/6 mouse implanted with mouse B16-F10 cells assessed as effect on body weight at 10 mg/kg, ip QD co-administered with SWS1 for 13 days. The format is organism-based. The settings on record: in vivo, 312 h, time 13 day.
In data set [5] the test system is CT26. Briefly: Antitumor activity against mouse CT26 cells implanted in BALB/c mouse assessed as reduction in tumor volume at 10 mg/kg, ip administered once daily for 21 days relative to control. The format is functional. More on the design: scale not given: the % may be the effect or the level left. To be noted: time 21 day.
A short description of data set [6]: AUC (0 to infinity) in male Sprague-Dawley rat at 10 mg/kg, po measured after 48 hrs by LC-MS/MS analysis. The settings on record: in vivo. The format is ADME, organism-based.
Data set [7] can be described thus: Toxicity in C57BL/6 mouse implanted with mouse B16-F10 cells assessed as change in heart histopathology at 10 mg/kg, ip administered once daily for 13 days by H&E staining based analysis. The settings on record: in vivo, 312 h, time 13 day. The format is organism-based.
Data set [8] can be described thus: AUC (0 to t) in male Sprague-Dawley rat at 2 mg/kg, iv measured after 48 hrs by LC-MS/MS analysis. The format is ADME, organism-based. The settings on record: in vivo.
In data set [9] the test system is Jurkat. Briefly: Induction of cell cycle arrest in human Jurkat cells assessed as decrease in S phase cells at 1 uM incubated for 24 hrs in presence of doxorubicin by PI staining based flow cytometric analysis. The format is functional. A general note: A flow cytometer gives signals particle by particle.
Data set [10] is described as follows: Toxicity in C57BL/6 mouse implanted with mouse B16-F10 cells assessed as change in spleen histopathology at 10 mg/kg, ip administered once daily for 13 days by H&E staining based analysis. The format is organism-based. To be noted: in vivo, 312 h, time 13 day.
Data set [11] deals with Jurkat. In words: Induction of cell cycle arrest in human Jurkat cells assessed as increase in G2/M phase cells at 1 uM incubated for 24 hrs in presence of doxorubicin by PI staining based flow cytometric analysis. The format is functional.
The subject of data set [12] is CT26. In words: Antiproliferative activity against mouse CT26 cells assessed as reduction in cell viability incubated for 48 hrs by CCK-8 assay. The settings on record: CT26, 48 h. The format is functional, cell-based.
The nature of data set [13]: C0 in male Sprague-Dawley rat at 2 mg/kg, iv measured after 48 hrs by LC-MS/MS analysis. The settings on record: in vivo. The format is ADME, organism-based.
For data set [14], the system named is Jurkat. Briefly: Antiproliferative activity against human Jurkat cells assessed as reduction in cell viability incubated for 48 hrs by CCK-8 assay. The format is functional, cell-based. (Tetrazolium dyes change colour on reduction, which living cells bring about.)
A short description of data set [15]: Oral bioavailability in male Sprague-Dawley rat at 10 mg/kg measured after 48 hrs by LC-MS/MS analysis. The format is ADME, organism-based. The settings on record: in vivo.
Data set [16] concerns B16-F10. Briefly: Antitumor activity against mouse B16-F10 cells implanted in C57BL/6 mouse assessed as tumor growth inhibition at 10 mg/kg, ip QD co-administered with PD-L1 antibody for 13 days relative to control. The format is functional. The settings on record: B16-F10, 312 h, time 13 day, read-out: TGI.
Data set [17] deals with CT26. In words: Antitumor activity against mouse CT26 cells implanted in BALB/c mouse assessed as reduction in tumor weight by measuring tumor growth inhibition at 10 mg/kg, ip QD co-administered with doxorubicin for 21 days relative to control. The format is functional. To be noted: CT26, 504 h, time 21 day, read-out: TGI.
In data set [18] the test system is B16-F10. In words: Immunomodulatory activity in mouse B16-F10 cells implanted in C57BL/6 mouse assessed as percentage of CD3 positive CD8 positive cells in tumor at 10 mg/kg, ip QD co-administered with PD-L1 antibody for 13 days by flow cytometric analysis (reference value: 0.99%). The settings on record: time 13 day. The format is functional.
Data set [19] concerns B16-F10. In words: Immunomodulatory activity in mouse B16-F10 cells implanted in C57BL/6 mouse assessed as percentage of CD3 positive CD8 positive cells in tumor at 10 mg/kg, ip QD co-administered with SWS1 for 13 days by flow cytometric analysis (reference value: 0.99%). The format is functional. The settings on record: time 13 day.
The nature of data set [20]: Tmax in male Sprague-Dawley rat at 10 mg/kg, po measured after 48 hrs by LC-MS/MS analysis. The format is ADME, organism-based. To be noted: in vivo.

As to `Cc1cc2cccnc2cc1Nc1ncc2c(n1)N(C1CCOCC1)Cc1nncn1-2`, the values for the inhibition in vivo at 10 mg/kg with B16-F10 [1], with B16-F10 [16] and with CT26 [17] were 63.2%, 60.5% and 50.2%, respectively. Also, the “Ratio IC50” value in [2] is recorded as 2.1. This compound gave a Cmax in data set [3] of 324 ng/mL. Further, the Activity result in data set [4] is listed as “Non-Toxic”; in the data set on CT26 [5] it was 32.1%; in data set [7], “Non-Toxic”; in data set [10], “Non-Toxic”; with B16-F10 [18], 5.17%; with B16-F10 [19] it was 5.17%. Further, the area under the curve AUC(0-inf) in data set [6] was 962 ng·h/mL. Moreover, in [8], the area under the curve AUC(0-t) at 48 h came out at 604 ng·h/mL. The result with Jurkat [9] and in the data set on Jurkat [11] was Active. Also, the values for the IC50 with CT26 [12] and in the data set with Jurkat [14] were 4.1 µM and 0.6 µM, respectively. In data set [13], this compound displayed a C0 at 48 h of 1000 ng/mL. This compound registered a bioavailability in [15] of 31.8%. Moreover, the time of peak concentration (Tmax) in data set [20] was 1.4 h.
